Experiments:
barnyardgrass = experiment: Test A preemergence; format: in vivo, Echinochloa crus-galli; settings: preemergence; for Barnyardgrass plant response rating (0 to 100 scale, 0 is no effect, 100 is complete control): visual injury approx. 10 days after treatment
Outline: (§1)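 Ratings express plant response from 0 (no effect) to 100 (complete control), judged visually against untreated controls after approximately 10 days in the greenhouse. Preemergence applications were made as directed soil sprays onto seeded loam–sand mix, and postemergence applications onto 2–10 cm plants at one- to two-leaf stage.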

wheat = experiment: Test C preemergence; format: in vivo, Triticum aestivum
Outline: (§2)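 Visual rating, 0–100 scale (0 no effect, 100 complete control), vs untreated controls after 13–15 d greenhouse. Pre: seeds in loam/sand, treated at sowing. Post: plants in peat-based mix, 1- to 4-leaf (2–18 cm). Solvent + surfactant formulation, non-phytotoxic.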

ragweed = experiment: Test C preemergence; format: in vivo, Ambrosia elation
Outline: as §2

pigweed [1] = experiment: Test A preemergence; format: in vivo, Amaranthus retroflexus; settings: preemergence; for Pigweed plant response rating (0 to 100 scale): 125 g ai/ha, visual injury approx. 10 days after treatment; for Pigweed plant response rating: 500 g ai/ha, visual injury after approx. 10 days, 0 to 100 scale (0 no effect, 100 complete control)
Outline: as §1

soybean = experiment: Test C preemergence; format: in vivo, Glycine max
Outline: as §2

oilseed rape = experiment: Test C preemergence; format: in vivo, Brassica napus
From the text: Seeds of plant species selected from blackgrass (Alopecurus myosuroides), ryegrass, Italian (Italian ryegrass, Lolium multiflorum), wheat (winter wheat, Triticum aestivum), galium (catchweed bedstraw, Galium aparine), corn (Zea mays), crabgrass, large (large crabgrass, Digitaria sanguinalis), foxtail, giant (giant foxtail, Setaria faberii), johnsongrass (Sorghum halepense), lambsquarters (Chenopodium album), morningglory (Ipomoea coccinea), nutsedge, yellow (yellow nutsedge, Cyperus esculentus), pigweed (redroot pigweed, Amaranthus retroflexus), ragweed (common ragweed, Ambrosia elation), soybean (Glycine max), barnyardgrass (Echinochloa crus-galli), oilseed rape (Brassica napus), waterhemp (common waterhemp, Amaranthus rudis), oat, wild (wild oat, Avena fatua), kochia (Kochia scoparia), Surinam grass (Brachiaria decumbens), foxtail, green (green foxtail, Setaria viridis), goosegrass (Eleusine indica), bromegrass, downy (downy bromegrass, Bromus tectorum), nightshade (eastern black nightshade, Solanum ptycanthum), cocklebur (common cocklebur, Xanthium strumarium), cupgrass, woolly (woolly cupgrass, Eriochloa villosa), bermudagrass (Cynodon dactylon), sunflower, (common oilseed sunflower, Helianthus annuus), Russian thistle (Salsola kali), and velvetleaf (Abutilon theophrasti) were planted into a blend of loam soil and sand and treated preemergence with test chemicals formulated in a non-phytotoxic solvent mixture which included a surfactant.
At the same time, plants selected from these crop and weed species and also chickweed (common chickweed, Stellaria media), canarygrass (littleseed canarygrass, Phalaris minor), and deadnettle (henbit deadnettle, Lamium amplexicaule), were planted in pots containing Redi-Earth® planting medium (Scotts Company, 14111 Scottslawn Road, Marysville, Ohio 43041) comprising spaghnum peat moss, vermiculite, wetting agent and starter nutrients and treated with postemergence applications of test chemicals formulated in the same manner. Plants ranged in height from 2 to 18 cm (1- to 4-leaf stage) for postemergence treatments. Treated plants and controls were maintained in a greenhouse for 13 to 15 days, after which time all species were compared to controls and visually evaluated. Plant response ratings, summarized in Table C, are based on a scale of 0 to 100 where 0 is no effect and 100 is complete control. A dash (-) response means no test result.

foxtail, giant = experiment: Test C preemergence; format: in vivo, Setaria faberii
Outline: as §2

johnsongrass = experiment: Test C preemergence; format: in vivo, Sorghum halepense
Outline: as §2

pigweed [2] = experiment: Test A postemergence; format: in vivo, Amaranthus retroflexus
Outline: as §1

velvetleaf [3] = experiment: Test A postemergence; format: in vivo, Abutilon theophrasti
Outline: as §1

blackgrass = experiment: Test C preemergence; format: in vivo, Alopecurus myosuroides
Outline: as §2

velvetleaf [4] = experiment: Test A preemergence; format: in vivo, Abutilon theophrasti; settings: preemergence; for Velvetleaf plant response rating (0 to 100 scale): 125 g ai/ha, visual injury approx. 10 days after treatment; for Velvetleaf plant response rating: 500 g ai/ha, visual injury after approx. 10 days, 0 to 100 scale (0 no effect, 100 complete control)
Outline: as §1

[5] = 500 g ai/ha, visual injury after approx. 10 days, 0 to 100 scale (0 no effect, 100 complete control)
[6] = preemergence, 31 g ai/ha, visual rating, scale 0 to 100 (0 no effect, 100 complete control), 13 to 15 days
[7] = preemergence, 62 g ai/ha, scale 0 to 100 (0 no effect, 100 complete control), 13 to 15 days
[8] = preemergence, 125 g ai/ha, 13 to 15 days, scale 0 to 100, 0 = no effect, 100 = complete control
[9] = preemergence, 250 g ai/ha, scale 0 to 100, 0 is no effect, 100 is complete control
[10] = Postemergence, 500 g ai/ha, 0 to 100 scale (0 no effect, 100 complete control)
[11] = postemergence, 125 g ai/ha, about 10 days, visual rating on 0 to 100 scale (0 no effect, 100 complete control)
[12] = Preemergence, 16 g ai/ha, scale 0 to 100

SMILES	Barnyardgrass plant response rating (barnyardgrass; [5])	Wheat plant response rating (wheat; [6])	Wheat plant response rating (wheat; [7])	Plant response rating, Wheat (wheat; [8])	Ragweed plant response rating (ragweed; [6])	Ragweed plant response rating (ragweed; [7])	Plant response rating, Ragweed (ragweed; [8])	Pigweed plant response rating (0 to 100 scale) (pigweed [1])	Pigweed plant response rating (pigweed [1])	Soybean plant response rating (soybean; [6])	Soybean plant response rating (soybean; [7])	Plant response rating, Soybean (soybean; [8])	Oilseed Rape plant response rating (oilseed rape; [6])	Oilseed Rape plant response rating (oilseed rape; [7])	Plant response rating, Oilseed Rape (oilseed rape; [8])	Foxtail, Giant plant response rating (foxtail, giant; [6])	Foxtail, Giant plant response rating (foxtail, giant; [7])	Plant response rating, Foxtail, Giant (foxtail, giant; [8])	Johnsongrass plant response rating (johnsongrass; [6])	Johnsongrass plant response rating (johnsongrass; [7])	also measured
O=C(NCC(F)(F)F)c1cc(CCF)n(Cc2ccnc(C(F)(F)F)c2)n1 [Compound 175]	100	0	50	85	80	90	98	100	100	30	98	98	98	100	100	75	100	100	0	35	Barnyardgrass plant response rating (barnyardgrass; 125 g ai/ha, visual injury, 0 to 100 scale, approx. 10 days): 100; Wheat plant response rating (wheat; [9]): 90; Ragweed plant response rating (ragweed; [9]): 95; Soybean plant response rating (soybean; [9]): 98; Oilseed Rape plant response rating (oilseed rape; [9]): 100; Foxtail, Giant plant response rating (foxtail, giant; [9]): 100; Plant response rating, Johnsongrass (johnsongrass; [8]): 70; Johnsongrass plant response rating (johnsongrass; [9]): 100; Pigweed plant response rating (pigweed [2]; [10]): 100; Pigweed plant response rating (pigweed [2]; [11]): 100; Velvetleaf plant response rating (velvetleaf [3]; [10]): 80; Velvetleaf plant response rating (velvetleaf [3]; [11]): 60; Blackgrass plant response rating (blackgrass; [6]): 30; Blackgrass plant response rating (blackgrass; [7]): 90; Plant response rating, Blackgrass (blackgrass; [8]): 90; Blackgrass plant response rating (blackgrass; [9]): 90; Velvetleaf plant response rating (0 to 100 scale) (velvetleaf [4]): 40; Velvetleaf plant response rating (velvetleaf [4]): 100
O=C(NC1CC1)c1cc(CCF)n(Cc2ccnc(C(F)(F)F)c2)n1 [Compound 176]	100	0	0	5	85	100	100	100	100	30	75	98	90	90	95	35	90	100	0	20	Barnyardgrass plant response rating (0 to 100 scale, 0 is no effect, 100 is complete control) (barnyardgrass; 125 g ai/ha): 80; Wheat plant response rating (wheat; [9]): 85; Ragweed plant response rating (ragweed; [9]): 95; Soybean plant response rating (soybean; [9]): 98; Oilseed Rape plant response rating (oilseed rape; [9]): 100; Foxtail, Giant plant response rating (foxtail, giant; [9]): 100; Plant response rating, Johnsongrass (johnsongrass; [8]): 65; Johnsongrass plant response rating (johnsongrass; [9]): 85; Pigweed plant response rating (pigweed [2]; [10]): 100; Pigweed plant response rating (pigweed [2]; [11]): 100; Velvetleaf plant response rating (velvetleaf [3]; [10]): 90; Velvetleaf plant response rating (velvetleaf [3]; [11]): 40; Blackgrass plant response rating (blackgrass; [6]): 5; Blackgrass plant response rating (blackgrass; [7]): 5; Plant response rating, Blackgrass (blackgrass; [8]): 90; Blackgrass plant response rating (blackgrass; [9]): 90; Velvetleaf plant response rating (0 to 100 scale) (velvetleaf [4]): 50; Velvetleaf plant response rating (velvetleaf [4]): 90
CCNC(=O)c1cc(CCF)n(Cc2ccnc(C(F)(F)F)c2)n1 [Compound 178]	100	0	0	0	70	85	90	100	100	5	40	75	70	80	98	65	90	100	0	5	Barnyardgrass plant response rating (0 to 100 scale, 0 is no effect, 100 is complete control) (barnyardgrass; 125 g ai/ha): 80; Plant response rating, Wheat (wheat; [12]): 0; Plant response rating, Ragweed (ragweed; [12]): 60; Plant response rating, Soybean (soybean; [12]): 5; Plant response rating, Oilseed Rape (oilseed rape; [12]): 50; Plant response rating, Foxtail, Giant (foxtail, giant; [12]): 5; Plant response rating, Johnsongrass (johnsongrass; [12]): 0; Plant response rating, Johnsongrass (johnsongrass; [8]): 25; Pigweed plant response rating (pigweed [2]; [10]): 100; Pigweed plant response rating (pigweed [2]; [11]): 100; Velvetleaf plant response rating (velvetleaf [3]; [10]): 60; Velvetleaf plant response rating (velvetleaf [3]; [11]): 40; Plant response rating, Blackgrass (blackgrass; [12]): 0; Blackgrass plant response rating (blackgrass; [6]): 5; Blackgrass plant response rating (blackgrass; [7]): 30; Plant response rating, Blackgrass (blackgrass; [8]): 85; Velvetleaf plant response rating (0 to 100 scale) (velvetleaf [4]): 30; Velvetleaf plant response rating (velvetleaf [4]): 90
